The values below come from patent publication US20210070747A1, “2(1H)-QUINOLINONE DERIVATIVE” (priority 2017, published 2021).

Assay [1] has as its target T1, E. coli DNA gyrase (Escherichia coli, UniProt P0AES6).
T1 construct: made in house; host or cells: E. coli BL21 (DE3)
Briefly: Test for evaluating the activity of inhibiting E. coli DNA gyrase enzyme (Method 2, supercoiling, recombinant gyrA/gyrB complex). The class given is biochemical. The method, then:
The enzymatic activity of E. coli DNA gyrase was measured by a method comprising reacting DNA gyrase and its substrate, relaxed pBR322 (Inspiralis), in the presence of ATP and detecting the post-reaction supercoiled pBR322/relaxed pBR322 ratio with H19.
Specifically, to 1 ng/μL of relaxed pBR322, E. coli DNA gyrase enzyme (the gyrA or gyrB gene was incorporated into the pET15b plasmid and after expressing them in E. coli BL21 (DE3), purification was performed using a Ni-NTA column to form a complex at room temperature) was added at a final concentration of 0.135 nmol/mL and the mixture was incubated for 60 minutes at room temperature. This reaction was carried out in 20 mmol/L tris-HCl buffered solution (pH 8.0) comprising 0.5 mmol/L ATP, 0.005% bridge 35, 35 mmol/L ammonium acetate, 8 mmol/L magnesium chloride, 4.6% glycerol, and 1 mmol/L dithiothreitol. To the reaction mixture, H19 was added to bring the reaction to an end; thereafter, the supercoiled pBR322/relaxed pBR322 ratio was detected at excitation wavelength/emission wavelength=485 nm/535 nm. An inhibition curve was obtained by allowing the analyte compound to be present at varying concentrations during the reaction described above.

In assay [2] the test system is E. Coli ATCC 25922. Briefly: Test for evaluating antibacterial activity (E. coli), broth microdilution MIC. The class given is cell-based. To be noted: Escherichia coli, ATCC25922; 35° C., 18 hours, cation-adjusted Mueller-Hinton medium. The method, then:
Minimum inhibitory concentration (MIC) was measured using the broth microdilution method described below in accordance with a modification of the standard method specified by CLSI (Clinical & Laboratory Standards Institute).
Bacterial cells under test were cultured overnight on a heart infusion agar medium, scraped off and suspended at a concentration equivalent to McFarland 0.5 turbidity; the suspension thus obtained was diluted 10 folds to give a liquid inoculum. The inoculum (0.005 mL) was inoculated on a cation-adjusted Mueller-Hinton medium containing the analyte compound and cultured at 35° C. for 18 hours. A minimum drug concentration at which no bacterial growth was macroscopically visible was designated MIC.

Where [3] appears, read: Method 2, read-out: E. Coli Gyrase supercoiling IC50.

Read-outs that look alike come from different tables or passages of the source.

Turning to `CNc1cccc2cc(C(=O)Nc3cnc(NCCCN(CCO)CCO)nc3)c(=O)[nH]c12` [Example 41, N-[2-({3-[bis(2-hydroxyethyl)amino]propyl}amino)pyrimidine-5-yl]-8-(methylamino)-2-oxo-1,2-dihydroquinoline-3-carboxamide], in assay [1] (setting [3]), the IC50 came to 149 nM. Further, the MIC in assay [2] is above 64 µg/mL.
With `CNc1cc(F)cc2cc(C(=O)Nc3cnc(C(=O)NCCN4CCCCC4)nc3)c(=O)[nH]c12.O=CO` [Example 90, 6-fluoro-8-(methylamino)-2-oxo-N-(2-{[2-(piperidine-1-yl)ethyl]carbamoyl}pyrimidine-5-yl)-1,2-dihydroquinoline-3-carboxamide-formate], the IC50 in assay [1] turned out to be 2.45 nM. The compound also gave a minimal inhibitory concentration (MIC) in assay [2] above 16 µg/mL.
With `CNc1cc(F)cc2c(NCC3(N)CCC3)c(C(=O)Nc3ccc(C(=O)O)cc3)c(=O)[nH]c12.O=CO` [Example 140, 4-{[4-{[(1-aminocyclobutyl)methyl]amino}-6-fluoro-8-(methylamino)-2-oxo-1,2-dihydroquinoline-3-carbonyl]amino}benzoic acid-formate], in assay [1], the IC50 came out at 2.15 nM. The same compound showed an MIC in assay [2] above 32 µg/mL.
As to `CNc1cc(F)cc2cc(C(=O)Nc3ccnn3C)c(=O)[nH]c12` [Example 89, 6-fluoro-8-(methylamino)-N-(1-methyl-1H-pyrazole-5-yl)-2-oxo-1,2-dihydroquinoline-3-carboxamide], the IC50 in assay [1] (setting [3]) is 29.9 nM. In assay [2], this compound registered an MIC above 8 µg/mL.
For the compound `CNc1cccc2cc(C(=O)Nc3ccc(CC(=O)O)cc3)c(=O)[nH]c12` [Example 166, (4-{[8-(methylamino)-2-oxo-1,2-dihydroquinoline-3-carbonyl]amino}phenyl)acetic acid], the IC50 in assay [1] (setting [3]) came to 18.1 nM. In assay [2], the MIC was above 16 µg/mL.
Taken in the same sequence, the figures for `CCCCCN(CCCCC)Cc1cc(C(=O)O)ccc1NC(=O)c1cc2cncc(NC)c2[nH]c1=O` [Example 112, 3-[(dipentylamino)methyl]-4-{[8-(methylamino)-2-oxo-1,2-dihydro-1,6-naphthyridine-3-carbonyl]amino}benzoic acid] were 4.13 nM and above 64 µg/mL.
Take `CNc1cc(F)cc2c(N[C@H]3C[C@@H](N)C3)c(C(=O)Nc3ccc(C(=O)O)cc3)c(=O)[nH]c12` [Example 142, 4-({4-[(cis-3-aminocyclobutyl)amino]-6-fluoro-8-(methylamino)-2-oxo-1,2-dihydroquinoline-carbonyl}amino) 3-benzoic acid-formate]: the IC50 in assay [1] (setting [3]) is 2.66 nM. This compound had an MIC in assay [2] above 32 µg/mL.
With `CNc1cccc2cc(C(=O)Nc3cnc(N4CCC(N)(C(=O)O)CC4)nc3)c(=O)[nH]c12.Cl` [Example 39, 4-Amino-1-(5-[[8-(methylamino)-2-oxo-1,2-dihydroquinoline-3-carbonyl]amino]pyrimidin-2-yl)piperidine-4-carboxylic acid-hydrochloride], in assay [1], the half-inhibitory concentration (IC50) is 48.7 nM. The compound also yielded a minimum inhibitory concentration (MIC) in assay [2] above 8 µg/mL.
Regarding `CNc1cc(F)cc2cc(C(=O)Nc3ccc(C(=O)O)cc3CN(C)C3CC3)c(=O)[nH]c12` [Example 97, 3-{[cyclopropyl (methyl)amino]methyl}-4-{[6-fluoro-8-(methylamino)-2-oxo-1,2-dihydroquinoline-3-carbonyl]amino} benzoic acid], the IC50 in assay [1] is 0.6 nM. The MIC in assay [2] is above 8 µg/mL.
Taken in the same sequence, the figures for `CNCCc1c(C(=O)Nc2ccc(C(=O)O)cc2)c(=O)[nH]c2c(NC)cc(F)cc12.O=C(O)C(F)(F)F` [Example 130, 4-([6-Fluoro-8-(methylamino)-4-[2-(methylamino)ethyl]-2-oxo-1,2-dihydroquinoline-3-carbonyl]amino)benzoic acid-trifluoroacetate] were 109 nM and above 8 µg/mL.
Turning to `CNc1cc(F)cc2cc(C(=O)Nc3ccc(C(=O)O)cc3CCN(C)C3CCCCC3)c(=O)[nH]c12` [Example 111, 3-{2-[cyclohexyl (methyl)amino]ethyl}-4-{[6-fluoro-8-(methylamino)-2-oxo-1,2-dihydroquinoline-3-carbonyl]amino} benzoic acid], in assay [1] (setting [3]), the IC50 was 2.94 nM. Besides, the MIC in assay [2] was above 32 µg/mL.
Regarding `CNc1cc(F)cc2c(NC[C@H]3C[C@H](N)C3)c(C(=O)Nc3ccc(C(=O)O)cc3)c(=O)[nH]c12.O=CO` [Example 136, 4-{[4-{[(trans-3-aminocyclobutyl)methyl]amino}-6-fluoro-8-(methylamino)-2-oxo-1,2-dihydroquinoline-3-carbonyl]amino}benzoic acid-formate], the IC50 in assay [1] is 1.28 nM. Besides, in assay [2], the MIC is above 32 µg/mL.
`CNc1cc(F)cc2cc(C(=O)Nc3ccc(C(=O)O)cc3CN3CCCC(N)C3)c(=O)[nH]c12.Cl` (stereo not shown) [Example 109, 3-[(3-Aminopiperidin-1-yl)methyl]-4-[[6-fluoro-8-(methylamino)-2-oxo-1,2-dihydroquinoline-3-carbonyl]amino]benzoic acid-hydrochloride]: the IC50 in assay [1] amounted to 15.1 nM. In addition, the MIC in assay [2] was above 32 µg/mL.
Regarding `CNc1cccc2cc(C(=O)Nc3cnc(NCc4csc(N)n4)nc3)c(=O)[nH]c12` [Example 35, N-(2-[[(2-Amino-1,3-thiazol-4-yl)methyl]amino]pyrimidin-5-yl)-8-(methylamino)-2-oxo-1,2-dihydroquinoline-3-carboxamide], the IC50 in assay [1] (setting [3]) was determined as 1.47 nM. In assay [2], this compound showed a minimal inhibitory concentration (MIC) above 4 µg/mL.
With `CNc1cc(F)cc2cc(C(=O)Nc3ccc(C(=O)O)cc3CCCCN(C)C)c(=O)[nH]c12` [Example 126, 3-[4-(dimethylamino)butyl]-4-{[6-fluoro-8-(methylamino)-2-oxo-1,2-dihydroquinoline-3-carbonyl]amino}benzoic acid], the IC50 in assay [1] (setting [3]) came to 22 nM. Besides, the minimal inhibitory concentration (MIC) in assay [2] is above 8 µg/mL.
The matching figures for `CNc1cc(F)cc2cc(C(=O)Nc3ccc(C(=O)O)cc3/C=C/CCO)c(=O)[nH]c12` [Example 119, 4-[[6-Fluoro-8-(methylamino)-2-oxo-1,2-dihydroquinoline-3-carbonyl]amino]-3-[(1E)-4-hydroxybut-1-en-1-yl]benzoic Acid]: 20.6 nM and above 64 µg/mL.
Taken in the same sequence, the figures for `CNc1cc(F)cc2cc(C(=O)Nc3ccc(C(=O)NCCN4CCOCC4)cc3C)c(=O)[nH]c12` [Example 86, 6-fluoro-8-(methylamino)-N-(2-methyl-4-{[2-(morpholine-4-yl)ethyl]carbamoyl}phenyl)-2-oxo-1,2-dihydroquinoline-3-carboxamide] were 34.4 nM and above 4 µg/mL.
Consider `CNc1cc(F)cc2c(NC3CC34CCNCC4)c(C(=O)Nc3ccc(C(=O)O)cc3)c(=O)[nH]c12.O=CO` (stereo not shown) [Example 139, 4-({4-[(6-azaspiro[2.5]octane-1-yl)amino]-6-fluoro-8-(methylamino)-2-oxo-1,2-dihydroquinoline-3-carbonyl}amino)benzoic acid-formate], for which, in assay [1], the IC50 came to 6.94 nM. The MIC in assay [2] is above 64 µg/mL.
In the case of `CNc1cc(F)cc2cc(C(=O)Nc3ccc(C(=O)O)cc3N(C)C3CCCCC3)c(=O)[nH]c12` [Example 114, 3-[Cyclohexyl(methyl)amino]-4-[[6-fluoro-8-(methylamino)-2-oxo-1,2-dihydroquinoline-3-carbonyl]amino]benzoic Acid], in assay [1] (setting [3]), the IC50 is 339 nM. This compound returned a minimum inhibitory concentration (MIC) in assay [2] above 32 µg/mL.
As for `CNc1cc(F)cc2cc(C(=O)Nc3ccc(C(=O)NCCN4CCOCC4)cc3CN(C)C3CCN(C)CC3)c(=O)[nH]c12` [Example 84, 6-fluoro-8-(methylamino)-N-(2-{[methyl(1-methylpiperidine-4-yl)amino]methyl}-4-{[2-(morpholine-4-yl)ethyl]carbamoyl}phenyl)-2-oxo-1,2-dihydroquinoline-3-carboxamide], in assay [1] (setting [3]), the IC50 was 11.4 nM. In addition, the MIC in assay [2] is above 32 µg/mL.
Take `CNc1cc(F)cc2c(NCCN)c(C(=O)Nc3ccc(C(=O)O)cc3)c(=O)[nH]c12.O=CO` [Example 131, 4-([4-[(2-Aminoethyl)amino]-6-fluoro-8-(methylamino)-2-oxo-1,2-dihydroquinoline-3-carbonyl]amino)benzoic Acid-Formate]: the half-maximal inhibitory concentration (IC50) in assay [1] came out at 0.94 nM. The compound further returned a minimal inhibitory concentration (MIC) in assay [2] above 16 µg/mL.
In the case of `CNc1cccc2cc(C(=O)NCCc3noc(=O)[nH]3)c(=O)[nH]c12` [Example 36, 8-(methylamino)-2-oxo-N-[2-(5-oxo-4,5-dihydro-1,2,4-oxadiazole-3-y1)ethyl]-1,2-dihydroquinoline-3-carboxamide], the IC50 in assay [1] (setting [3]) came to 71.9 nM. Further, the MIC in assay [2] was above 32 µg/mL.
The matching figures for `CNc1cc(F)cc2cc(C(=O)Nc3ccc(C(=O)O)cc3CCCCO)c(=O)[nH]c12` [Example 120, 4-[[6-Fluoro-8-(methylamino)-2-oxo-1,2-dihydroquinoline-3-carbonyl]amino]-3-(4-hydroxybutyl)benzoic Acid]: 32.5 nM and above 32 µg/mL.
